Experimental data published in publication PMC10878532, “Sperm Toolbox—A selection of small molecules to study human spermatozoa” (PLOS ONE, 2024).
Structures can show the parent of a compound that is named as a salt.

B1: Urinastatin (protein, UniProt P02760 206-352, looked up)
Inter-alpha-trypsin inhibitor …: AVLPQEEEGSGGGQLVTEVTKKEDSCQLGYSAGPCMGMTSRYFYNGTSMACETFQYGGCMGNGNNFVTEKECLQTCRTVAACNLPIVRGPCRAFIQLWAFDAVKGKCVLFPYGGCQGNGNKFYSEKECREYCGVPGDGDEELLRFSN
modifications: Inter-alpha-trypsin inhibitor light chain
notes: interferes with liquefaction

What was measured:
human spermatozoa [1] = assay: Authors' own unpublished screening campaigns ('This study'); format: cell-based
Description: Because there is so little known about the molecular mechanisms that control sperm motility, we are unable to develop hypotheses of potential targets when new hits are identified in the sperm motility assay. However, it is now well-established that features derived from images in phenotypic assays, when compared to phenotypes measured on reference compounds, can accurately stratify genetic or chemical perturbations in phenotypic screens. […] Compound annotations are included in the dataset derived from the STB and indicate that Enzymes/Kinases, Receptors, Channels and Transporters are the most represented target of the STB compound classes (Fig 1D).
List of compounds included in Sperm Toolbox. Published Phenotypes are summaries of reported effects on sperm function related to other processes (e.g. spermatogenesis, liquefaction, or ejaculation).

human spermatozoa [2] = assay: Motility assay (non-capacitating conditions); format: cell-based; conditions: cluster in Fig 3A heatmap, 30 μM
Protocol: To compare the effects of STB compounds on specific sperm functions (e.g. motility, acrosome reaction, viability), we screened them in multiple phenotypic functional assays described below. Each sperm function assay has been repeated in multiple donor pools (see Materials and methods), where each pool consists of cells donated from at least 3 different donors to address donor to donor variability. Each compound has been tested at two concentrations, 10 and 30 μM, and normalized to vehicle controls (DMSO, see Materials and methods). We have modified our assays from the previously published workflow by increasing incubation time and introducing conditions that support capacitation, which is a sperm maturation process required for fertilization. These changes expand the range of targets that we can explore in our assays. Our live-sperm-based high-throughput motility assays use an automated microscope to record short timelapse movies. These assays can be run in different protocols (S1 Fig). […] In this protocol, cells are incubated with compounds for 10 min prior to the first motility read-out. A second and third motility read-out were performed after 3h and 6h incubation. The second protocol, denoted ‘capacitation assay’, utilises conditions that support capacitation (S1 Fig). In this protocol, cells are kept in conditions supporting capacitation for 30 minutes prior to 30 minutes incubation with compound, followed by motility read-out. Both protocols allow sperm motility to be measured (0.5 sec time-lapse movies allow tracking of cells and calculation of sperm kinematics). In addition, the capacitation assay also scores hyperactivation (i.e. distinct movement patterns concomitant with capacitation which are crucial for fertilization) (Fig 2A).
Cells were rested for 1 h post density gradient centrifugation. 10 μL assay buffer was dispensed into assay ready plates, plates were put onto a shaker instrument for 30 seconds using 1,000 rpm, followed by a short pulse centrifugation. Plates were incubated for 15–30 mins at 37°C prior to addition of 10 μL of pooled cells (at 1 M/mL concentration). Plates were then incubated in a Yokogawa CV7000 microscope set at 37°C for 10 min prior to imaging. Imaging a 384-well plate requires ≤ 20 min using the following settings: 2 positions per well, 0.5 sec timelapse movies (3x binning; 11 ms exposure time, 22 ms interval time, […]). A second and a third timepoint was recorded after 3 h, and 6 h incubation at 37°C. Data has been processed as described in [8]. Assay results are from 5 separate donor pools.
(§1) For cell painting imaging data, plates of images were imported into OMERO [70]. Cell segmentation and feature extraction were performed using CellProfiler 3 [71] and using instructions from to normalize data. Timelapse data of motility assays was processed as previously described. Acrosome flow cytometry data was processed using NovoCyte Express (PerkinElmer), to gate out background debris, select for single cells and calculate percentage values of acrosome positive events. Sperm viability flow cytometry data was processed using iQue Forecyt (Satorius) to gate out background debris, select for single cells and calculate percentage values of propidium iodide positive events. For all sperm functional assays, data was normalized to DMSO control wells. Each plate had 16 DMSO wells. A median value of all 16 wells was used to calculated percentage change (pct_ch = ((value / DMSO_median) -1) * 100). For sperm viability we calculated fold-change (fc = 1 − (value / DMSO_median)). For each compound we calculated a p-value using a Welch’s t-test implemented in scipy (scipy.stats.ttest_ind) comparing a compounds effect to DMSO controls.

spermatozoa = system: spermatozoa; parameters: method as in per compound as listed in column References of Table 1; conditions: summaries of reported effects; ref per compound as listed in Table 1; cited from earlier work
human spermatozoa [3] = assay: Acrosome assay, protocol 1 (3h incubation with compound, no agonist; flow cytometry, PNA); format: cell-based; conditions: assay 'Acrosome', incubation_time 3h
Protocol: The acrosome assays utilize a high-throughput flow cytometer (S1 Fig) to score for compounds inducing the acrosome reaction, using peanut agglutinin conjugated to a fluorescent dye to label the outer acrosomal membrane. We have developed two different screening protocols, named ‘acrosome 1’ and ‘acrosome 2’ (S1 Fig). […] This addition allowed measurement of inhibition of acrosome reaction (Fig 2B).
In both experimental protocols, 20 μL of pooled cells (at 1 M/mL concentration) were capacitated for 3 h in presence of compounds at 37°C and 5% CO2. In protocol a, cells were then stained with PNA-Alexa647 (ThermoFisher, 1 mg/mL, final dilution 1:1000) and Hoechst dye for 30 min at 37°C and 5% CO2, followed by 10 min fixation at RT by adding 20 μL of 4% paraformaldehyde (Sigma) in PBS. In mode b, a cocktail of progesterone, prostaglandin A and NH4Cl was added to all compound wells and incubated for an additional 1 h at 37°C and 5% CO2 to induce acrosome reaction. This was followed by fixation and staining protocol as for mode a. In both protocols fixatives and stains were removed and cells were resuspended in PBS, using a 405 platewasher. Plates were then measured on a Novocyte Advanteon high-throughput flow cytometer. Gating of data has been performed using the flow cytometer software to export counts of gated populations. The Acrosome 1 protocol using 3h incubation with compounds was run in 7 separate donor pools. The Acrosome 2 protocol using 3h incubation with compound followed by 1h stimulation of acrosome reaction was run in 5 separate donor pools.
as §1

[4] = screening_concentration_M 9.99e-6
[5] = screening_concentration_M 2.991e-5

| Molecule | Phenotype observed in own screening campaigns (Published Phenotype, References 'This study') (human spermatozoa [1]) | Published Phenotype (spermatozoa) | also measured |
| --- | --- | --- | --- |
| Clc1ccc(C(OCCN2CCCCC2)c2ccccc2)cc1 (stereo not shown) [Cloperastine hydrochloride] | Reduces sperm motility | – | – |
| CCOc1ccc(-c2nc(-c3cccc4c3CCC4NCCO)no2)cc1OCC (stereo not shown) [CYM 5442 hydrchloride] | Reduces sperm motility; induces acrosome reaction | – | – |
| CCS(=O)(=O)Nc1ccc2c(c1)/C(=C(/Nc1ccc(CN3CCCCC3)cc1)c1ccccc1)C(=O)N2 [Hesperadin hydrochloride] | Reduces sperm motility | – | – |
| CCCCCCCCOc1ccc(-c2noc([C@@H]3CCCN3C(=N)N)n2)cc1C(F)(F)F [SLM 6031434 hydrochloride] | Induces acrosome reaction | – | – |
| Cc1ccc(S(=O)(=O)c2ccc([N+](=O)[O-])o2)cc1 [NSC 697923] | Reduces sperm motility | – | – |
| COc1cc(C)c2c(Oc3cccc(C(F)(F)F)c3)c(OC)cc(NC(C)CCCN)c2n1 (stereo not shown) [Tafenoquine] | Reduces sperm motility; induces acrosome reaction | – | sperm motility and/or acrosome reacted cells (unsupervised clustering) (human spermatozoa [2]): significant reduction of sperm motility and/or increased amounts of acrosome reacted cells |
| NC(=O)Nc1cc(-c2cccc(F)c2)sc1C(=O)N[C@H]1CCCNC1 [AZD 7762 hydrochloride] | Reduces sperm motility | – | – |
| O=C(N1CCCCC1)N1CCCCC1Cc1ccccc1 (stereo not shown) [compound 183] | – | Reduces acrosome reaction | ch (percentage change vs DMSO median), Acrosome (human spermatozoa [3]; [4]): 0.955%; ch (percentage change vs DMSO median), Acrosome (human spermatozoa [3]; [5]): 1.376% |
| N=C(N)Nc1nc2ccccc2[nH]1 [2-Guanidinobenzimidazole] | – | Reduces sperm motility | ch (percentage change vs DMSO median), Acrosome (human spermatozoa [3]; [4]): 0.2236%; ch (percentage change vs DMSO median), Acrosome (human spermatozoa [3]; [5]): 0.07571% |
| [O-][S+](c1ccccc1)c1ccc2nnnn2n1 (stereo not shown) [Ro 106–9920] | Reduces sperm motility | – | – |
| CCCCC(CC)CNC(=N)NC(=N)NCCCCCCNC(=N)NC(=N)NCC(CC)CCCC (stereo not shown) [Alexidine dihydrochloride] | – | Reduces sperm motility | sperm motility and/or acrosome reacted cells (unsupervised clustering) (human spermatozoa [2]): significant reduction of sperm motility and/or increased amounts of acrosome reacted cells |
| CC(C)(C)c1ccc(S(=O)(=O)Nc2cnc3[nH]c(C(=O)N[C@H]4CCC[C@H]4O)c(-c4ccccc4)c3c2)cc1 [compound 68853496] | – | Patent; sAC inhibitor | – |
| COc1cc(SC)ccc1C(=O)N1CCC(Cc2ccccc2)CC1 [JX 401] | – | Modulates Ca^2+ response | – |
| O=C(O)c1ccc(/C=C2/SC(=S)N(c3cccc(C(F)(F)F)c3)C2=O)cc1 [CTFRinh-172] | – | Blocks progesterone induced acrosome reaction; blocks sperm hyperactivation; blocks recombinant ZP3 induced acrosome reaction | – |
| Nc1ccc(-c2ccc3ncc4ccc(=O)n(-c5cccc(C(F)(F)F)c5)c4c3c2)cn1 [Torin 2] | – | Enhances sperm motility | – |
| COc1ccc(CCCN2CCC(COC(c3ccccc3)c3ccccc3)CC2)cc1 [UK 78282 hydrochloride] | – | Modulates Ca^2+ response | – |
| COc1cc2ncn(-c3cc(OCc4ccccc4C(F)(F)F)c(C(N)=O)s3)c2cc1OC [GW 843682X] | – | Enhances sperm motility | – |
| c1ccc2c(c1)SCc1c-2[nH]c2ccccc12 [PD 146176] | – | Antagonizing negative effects of ROS on sperm function such as acrosome reaction | – |
| CC(C)[C@H]1c2ccc(F)cc2CC[C@@]1(CCN(C)CCCc1nc2ccccc2[nH]1)OC(=O)C1CC1 [NNC 55–0396 dihydrochloride] | – | Blocks ccl-20 induced Ca^2+ response; Modulates CatSper | – |
| C[C@@H]1O[C@@H](O[C@H]2C[C@@H](O)[C@]3(CO)[C@H]4[C@H](O)C[C@]5(C)[C@@H](C6=CC(=O)OC6)CC[C@]5(O)[C@@H]4CC[C@]3(O)C2)[C@H](O)[C@H](O)[C@H]1O [Ouabain] | – | Reduces sperm motility | – |
| O.O.O.OO.OO.[K+].[OH-].[V].c1cnc2c(c1)ccc1cccnc12 [bpV(phen)] | – | Blocks progesterone induced acrosome reaction; blocks progesterone induced Ca^2+ response | – |
| C=CC[C@@H]1/C=C(\C)C[C@H](C)C[C@H](OC)[C@H]2O[C@@](O)(C(=O)C(=O)N3CCCC[C@H]3C(=O)O[C@H](/C(C)=C/[C@@H]3CC[C@@H](O)[C@H](OC)C3)[C@H](C)[C@@H](O)CC1=O)[C@H](C)C[C@@H]2OC [Tacrolimus] | – | Blocks progesterone induced acrosome reaction | – |
| CNc1ccc2oc(C[C@H]3O[C@@]4(CC[C@H]3C)O[C@H]([C@H](C)C(=O)c3ccc[nH]3)[C@H](C)C[C@H]4C)nc2c1C(=O)O [A23187] | – | Induces acrosome reaction | sperm motility and/or acrosome reacted cells (unsupervised clustering) (human spermatozoa [2]): significant reduction of sperm motility and/or increased amounts of acrosome reacted cells |
| B1 | – | Interferes with liquefaction; reduces sperm motility | – |
